From US20250340563A1, “FUSED PYRIDAZINE DERIVATIVES AS NLRP3 INHIBITORS” (Takeda Pharmaceutical Company Limited, priority 2022, published 2025)

Columns and labels:
NLRP3 inflammasome = NLRP3 inflammasome (Homo sapiens, UniProt Q96P20); assay: IL-1β assay in IFN-γ-differentiated, LPS-primed, ATP-activated THP-1 cells (ELISA); format: cell-based; conditions: 50 ng/mL LPS priming, 2.5 mM ATP activation, 2 hours
Summary of the method: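 Supernatant IL-1β is quantified by ELISA after 2 h of 2.5 mM ATP stimulation at 37 °C, with IC50 taken from a four-parameter fit of % inhibition. Before this, THP-1 macrophages (25 ng/mL IFN-γ, 24 h) were LPS-primed (50 ng/mL, 24 h, no FBS) and exposed to serially diluted compound for 30 min.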

NF-κB pathway = assay: TNF-α assay in IFN-γ-differentiated, LPS-stimulated THP-1 cells (ELISA); format: cell-based; conditions: Homo sapiens, 50 ng/mL LPS, 3 hours
Experimental: Monocytic THP-1 cells (ATCC: TIB-202) are maintained in accordance with the provider's instructions in RPMI media (Life Technologies, Cat #A10491-01); RPMI is supplemented with 10% heat inactivated fetal bovine serum (Hyclone Cat #SH30396.03). The cells are differentiated into macrophages by the addition of 25 ng/mL IFN-γ for 24 hours at 37° C./5% CO2. Media is exchanged with fresh media with no FBS. The cells are plated at 40,000 cells per well in 384-well flat-bottom cell culture plates (Costar 3764) containing compounds (added in 1:1000) in a 1:3.16 serial dilution series in DMSO and are incubated for 30 minutes at 37° C./5% CO2. The NF-κB pathway is activated with the addition of 50 ng/mL LPS and the cells are incubated for 3 hours at 37° C./5% CO2. At the end of the incubation period, supernatant (40 μL) is removed, and […] are monitored using an ELISA (Human TNF-α ELISA, R&D systems, Cat #DY210) according to the manufacturer's instructions.
The IC50 values are calculated from a plot of percentage of inhibition versus the inhibitor concentration by a logistics curve fit according to: Y=[Bottom+(Top−Bottom)]/(1+10^[(Log IC50−X)·Hill Slope], where Y is the % inhibition at the inhibitor concentration, X, “Bottom” is the lowest inhibition value, i.e. 0%, “Top” is the maximum inhibition value, i.e. 100%, and the “Hill Slope” describes the slope of the sigmoidal curve between the “Bottom” and “Top” values. The curve fitting was conducted with internally developed software.

Sequence of NLRP3 inflammasome (Q96P20 whole entry): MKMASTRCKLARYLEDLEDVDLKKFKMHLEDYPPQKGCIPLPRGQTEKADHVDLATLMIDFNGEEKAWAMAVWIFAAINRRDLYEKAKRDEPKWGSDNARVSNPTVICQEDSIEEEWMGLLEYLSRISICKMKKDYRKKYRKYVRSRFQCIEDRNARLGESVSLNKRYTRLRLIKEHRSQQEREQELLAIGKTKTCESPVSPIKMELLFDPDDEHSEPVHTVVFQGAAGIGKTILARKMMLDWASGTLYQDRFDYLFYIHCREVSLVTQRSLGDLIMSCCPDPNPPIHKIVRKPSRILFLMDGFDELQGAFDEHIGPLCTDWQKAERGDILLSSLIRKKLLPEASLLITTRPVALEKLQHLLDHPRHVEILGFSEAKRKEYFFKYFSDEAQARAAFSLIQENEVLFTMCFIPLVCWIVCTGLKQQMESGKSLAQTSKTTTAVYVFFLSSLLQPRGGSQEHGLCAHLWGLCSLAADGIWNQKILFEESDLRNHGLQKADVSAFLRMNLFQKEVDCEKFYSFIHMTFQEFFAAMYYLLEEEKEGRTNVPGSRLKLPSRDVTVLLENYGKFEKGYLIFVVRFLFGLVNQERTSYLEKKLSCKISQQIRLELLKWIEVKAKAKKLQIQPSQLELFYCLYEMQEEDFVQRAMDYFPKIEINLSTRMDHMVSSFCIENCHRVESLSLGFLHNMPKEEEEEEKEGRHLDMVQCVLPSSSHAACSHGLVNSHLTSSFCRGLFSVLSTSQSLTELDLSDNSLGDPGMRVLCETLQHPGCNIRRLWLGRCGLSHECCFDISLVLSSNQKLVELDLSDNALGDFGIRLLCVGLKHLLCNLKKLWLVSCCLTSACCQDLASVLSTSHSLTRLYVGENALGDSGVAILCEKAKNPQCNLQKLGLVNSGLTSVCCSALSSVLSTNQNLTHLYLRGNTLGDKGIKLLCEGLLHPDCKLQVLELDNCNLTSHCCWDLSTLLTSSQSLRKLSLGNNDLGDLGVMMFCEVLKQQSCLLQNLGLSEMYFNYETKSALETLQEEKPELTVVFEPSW

Row | IC50 (NLRP3 inflammasome) | IC50 (NF-κB pathway) | Structure (SMILES)
1 | 556 nM | > 30000 nM | CN1C[C@H](F)C[C@@H](Nc2nnc(-c3ccc(OC(F)(F)F)cc3F)c3c2CCOC3)C1 [Example 214, N-((3R,5R)-5-fluoro-1-methylpiperidin-3-yl)-4-(2-fluoro-4-(trifluoromethoxy)phenyl)-7,8-dihydro-5H-pyrano[3,4-d]pyridazin-1-amine]
2 | 7 nM | > 30000 nM | COc1ccc(-c2nnc(N[C@@H]3CCCN(C4CC4)C3)c3cnccc23)cc1 [Example 169, (R)—N-(1-cyclopropylpiperidin-3-yl)-1-(4-methoxyphenyl)pyrido[3,4-d]pyridazin-4-amine]
3 | 3 nM | > 30000 nM | Cc1ccc(-c2nnc(N[C@@H]3C[C@@H](F)CN(C)C3)c3cnccc23)c(O)c1 (relative stereo) [Example 173, 2-(4-((trans-5-fluoro-1-methylpiperidin-3-yl)amino)pyrido[3,4-d]pyridazin-1-yl)-5-methylphenol]
4 | 95 nM | > 10000 nM | COc1cc2c(NC3CCCN(C)C3)nnc(-c3ccc(Cl)cc3)c2cn1 (stereo not shown) [Example 82, 4-(4-chlorophenyl)-7-methoxy-N-(1-methylpiperidin-3-yl)pyrido[3,4-d]pyridazin-1-amine]
5 | 32 nM | > 30000 nM | CN1C[C@H](F)C[C@@H](Nc2nnc(-c3ccc(F)cc3O)c3c2CCOC3)C1 [Example 203, 5-fluoro-2-(1-(((3R,5R)-5-fluoro-1-methylpiperidin-3-yl)amino)-7,8-dihydro-5H-pyrano[3,4-d]pyridazin-4-yl)phenol]
6 | 75 nM | > 30000 nM | FCCN1CCCC(Nc2nnc(-c3ccc(Cl)cc3)c3ccccc23)C1 (stereo not shown) [Example 140, 4-(4-chlorophenyl)-N-(1-(2-fluoroethyl)piperidin-3-yl)phthalazin-1-amine]
7 | 1620 nM | > 30000 nM | COc1ccc(-c2nnc(Nc3ccccc3O)c3ccccc23)cc1 [Example 39, 2-((4-(4-methoxyphenyl)phthalazin-1-yl)amino)phenol]
8 | 159 nM | > 30000 nM | COc1ccc(-c2nnc(N[C@@H]3C[C@@H](F)CN(C)C3)c3cnccc23)cc1 [Example 174, N-((3R,5R)-5-fluoro-1-methylpiperidin-3-yl)-1-(4-methoxyphenyl)pyrido[3,4-d]pyridazin-4-amine]
9 | 5 nM | 26000 nM | Oc1cc(Cl)ccc1-c1nnc(NC23CCC(O)(CC2)C3)c2cnccc12 [Example 96, 4-((1-(4-chloro-2-hydroxyphenyl)pyrido[3,4-d]pyridazin-4-yl)amino)bicyclo[2.2.1]heptan-1-ol]
10 | 37 nM | > 30000 nM | CN1C[C@H](F)C[C@@H](Nc2nnc(-c3ccc(Cl)cc3F)c3ccccc23)C1 [Example 176, 4-(4-chloro-2-fluorophenyl)-N-((3R,5R)-5-fluoro-1-methylpiperidin-3-yl)phthalazin-1-amine]
11 | 155 nM | > 30000 nM | Cc1ccc(-c2nnc(NC34CCC(O)(CC3)C4)c3c2COCC3)c(O)c1 [Example 232, 4-((4-(2-hydroxy-4-methylphenyl)-7,8-dihydro-5H-pyrano[3,4-d]pyridazin-1-yl)amino)bicyclo[2.2.1]heptan-1-ol]
12 | 97 nM | > 30000 nM | CN1CCCC(Nc2nnc(-c3ccc(Cl)c(F)c3)c3ccccc23)C1 (stereo not shown) [Example 44, 4-(4-chloro-3-fluorophenyl)-N-(1-methylpiperidin-3-yl)phthalazin-1-amine]
13 | 276 nM | > 30000 nM | COc1ccc(-c2nnc(NC3CCCN(C)C3)c3ccccc23)cc1 (stereo not shown) [Example 123, 4-(4-methoxyphenyl)-N-(1-methylpiperidin-3-yl)phthalazin-1-amine]
14 | 91 nM | > 30000 nM | Clc1ccc(-c2nnc(NC3CCCN(C4CC4)C3)c3ccncc23)cc1 (stereo not shown) [Example 89, 4-(4-chlorophenyl)-N-(1-cyclopropylpiperidin-3-yl)pyrido[3,4-d]pyridazin-1-amine]
15 | 648 nM | 7590 nM | F[C@H]1CNC[C@H](Nc2nnc(-c3ccc(Cl)cc3)c3ccccc23)C1 [Example 190, 4-(4-chlorophenyl)-N-((3R,5R)-5-fluoropiperidin-3-yl)phthalazin-1-amine]
16 | 47 nM | > 30000 nM | CN1CCCC(Nc2nnc(-c3ccc(Cl)cc3)c3ccccc23)C1 (stereo not shown) [Example 113, 4-(4-chlorophenyl)-N-(1-methylpiperidin-3-yl)phthalazin-1-amine]

Row | IC50 (NLRP3 inflammasome) | IC50 (NF-κB pathway) | Structure (SMILES)
17 | 67 nM | > 30000 nM | Cc1cc2c(NC3CCCN(C)C3)nnc(-c3ccc(Cl)cc3)c2cn1 (stereo not shown) [Example 81, 4-(4-chlorophenyl)-7-methyl-N-(1-methylpiperidin-3-yl)pyrido[3,4-d]pyridazin-1-amine]
18 | 68 nM | > 30000 nM | CCN1CCCC(Nc2nnc(-c3ccc(OC)cc3)c3ccccc23)C1 (stereo not shown) [Example 171, N-(1-ethylpiperidin-3-yl)-4-(4-methoxyphenyl)phthalazin-1-amine]
19 | 113 nM | > 30000 nM | CCN1C[C@H](F)C[C@@H](Nc2nnc(-c3ccc(OC)cc3)c3ccncc23)C1 [Example 195, N-((3R,5R)-1-ethyl-5-fluoropiperidin-3-yl)-1-(4-methoxyphenyl)pyrido[3,4-d]pyridazin-4-amine]
20 | 853 nM | > 30000 nM | COc1ccc(-c2nnc(N[C@@H]3C[C@@H](F)CN(C)C3)c3c2COCC3)c(C(F)F)c1 [Example 208, 4-(2-(difluoromethyl)-4-methoxyphenyl)-N-((3R,5R)-5-fluoro-1-methylpiperidin-3-yl)-7,8-dihydro-5H-pyrano[3,4-d]pyridazin-1-amine]
21 | 97 nM | > 30000 nM | Cc1ccc(-c2nnc(N[C@@H]3CCCN(C)C3)c3cnccc23)cc1 [Example 30, (R)—N-(1-methylpiperidin-3-yl)-1-(p-tolyl)pyrido[3,4-d]pyridazin-4-amine]
22 | 10 nM | > 30000 nM | COc1ccc(-c2nnc(N[C@@H]3CCCN(C)C3)c3cnccc23)c(O)c1 [Example 36, (R)-5-methoxy-2-(4-((1-methylpiperidin-3-yl)amino)pyrido[3,4-d]pyridazin-1-yl)phenol]
23 | 33 nM | > 30000 nM | COc1ccc(-c2nnc(N[C@@H]3CCCN(CCF)C3)c3cnccc23)c(F)c1 [Example 87, (R)-1-(2-fluoro-4-methoxyphenyl)-N-(1-(2-fluoroethyl)piperidin-3-yl)pyrido[3,4-d]pyridazin-4-amine]
24 | 2 nM | > 30000 nM | Oc1cc(Cl)ccc1-c1nnc(N[C@@H]2CCCN(CCF)C2)c2ccccc12 [Example 59, (R)-5-chloro-2-(4-((1-(2-fluoroethyl)piperidin-3-yl)amino)phthalazin-1-yl)phenol]
25 | 88 nM | > 30000 nM | COc1ccc(-c2nnc(N[C@@H]3CCCN(C)C3)c3cnccc23)cc1 [Example 35, (R)-1-(4-methoxyphenyl)-N-(1-methylpiperidin-3-yl)pyrido[3,4-d]pyridazin-4-amine]
26 | 110 nM | > 30000 nM | CN1C[C@H](F)C[C@@H](Nc2nnc(-c3ccc(Cl)cc3)c3ccncc23)C1 [Example 189, 1-(4-chlorophenyl)-N-((3R,5R)-5-fluoro-1-methylpiperidin-3-yl)pyrido[3,4-d]pyridazin-4-amine]
27 | 5 nM | 24300 nM | COc1ccc(-c2nnc(N[C@@H]3CCCN(C)C3)c3ccnc(C)c23)c(O)c1 [Example 79, (R)-5-methoxy-2-(5-methyl-1-((1-methylpiperidin-3-yl)amino)pyrido[3,4-d]pyridazin-4-yl)phenol]
28 | 46 nM | 9550 nM | CN1CCC[C@@H](Nc2nnc(-c3ccc(Cl)cc3F)c3ccncc23)C1 [Example 71, (R)-1-(4-chloro-2-fluorophenyl)-N-(1-methylpiperidin-3-yl)pyrido[3,4-d]pyridazin-4-amine]
29 | 394 nM | > 30000 nM | COc1ccc(-c2nnc(Nc3cccc(O)c3)c3ccncc23)cc1 [Example 41, 3-((4-(4-methoxyphenyl)pyrido[3,4-d]pyridazin-1-yl)amino)phenol]
30 | 46 nM | > 30000 nM | CN1CCCC(Nc2nnc(-c3ccc(Cl)cc3F)c3ccncc23)C1 (stereo not shown) [Example 68, 1-(4-chloro-2-fluorophenyl)-N-(1-methylpiperidin-3-yl)pyrido[3,4-d]pyridazin-4-amine]
31 | 60 nM | > 30000 nM | CN1C[C@H](F)C[C@@H](Nc2nnc(-c3ccc(Cl)cc3)c3ccccc23)C1 [Example 192, 4-(4-chlorophenyl)-N-((3R,5R)-5-fluoro-1-methylpiperidin-3-yl)phthalazin-1-amine]
32 | 4 nM | > 30000 nM | CN1CCC[C@@H](Nc2nnc(-c3ccc(Cl)cc3O)c3ccncc23)C1 [Example 74, (R)-5-chloro-2-(4-((1-methylpiperidin-3-yl)amino)pyrido[3,4-d]pyridazin-1-yl)phenol]
